# Source: US6410482B1, “(Het) arylsulfonylureas having an amino function, their presentation and their use as herbicides and plant growth regulators” (Hoechst Schering AgrEvo GmbH, priority 1996, dated 2002)
# Experiments:
# [1] = test system: Sinapis alba, Stellaria media, Chrysanthemum segetum, and Lolium multiflorum; assay: Post-emergence effect on weeds (greenhouse pot test, visual scoring); type: in vivo; details: applied post-emergence (three-leaf stage) at 0.3 kg to 0.005 kg of active ingredient per hectare; scored visually after about 3 to 4 weeks vs untreated controls
# Method: Seeds or rhizome pieces of monocotyledonous and dicotyledonous weeds are placed in sandy loam soil in plastic pots, covered with soil and grown in a greenhouse under good growth conditions. Three weeks after sowing, the test plants are treated in the three-leaf stage. The compounds of the formula (I) or salts thereof according to the invention which have been formulated as wettable powders or as emulsion concentrates are sprayed in various dosages onto the green parts of the plants at an application rate of 600 to 800 l of water/ha (converted). After the test plants have remained in the greenhouse for about 3 to 4 weeks under ideal growth conditions, the effect of the preparations is scored visually by comparison with untreated controls. The agents according to the invention also have a good herbicidal post-emergence activity against a broad range of economically important grass weeds and broad-leaved weeds.
# [2] = test system: Sinapis alba, Stellaria media, Chrysanthemum segetum, and Lolium multiflorum; assay: Pre-emergence effect on weeds (greenhouse pot test, visual scoring); type: in vivo; details: applied pre-emergence at 0.3 kg to 0.005 kg of active ingredient per hectare; scored visually after 3 to 4 weeks vs untreated controls
# Source text: Seeds or rhizome pieces of monocotyledonous and dicotyledonous weed plants are placed in sandy loam soil in plastic pots and covered with soil. The compounds of the formula (I) or salts thereof according to the invention which have been formulated in the form of wettable powders or emulsion concentrates are then applied to the surface of the soil cover in the form of aqueous suspensions or emulsions at an application rate of […] of water/ha (converted), in various dosages.
# After the treatment, the pots are placed in a greenhouse and kept under good growth conditions for the weeds. After the test plants have emerged after a period of 3 to 4 weeks, the damage to the plants or the negative effect on the emergence is scored visually by comparison with untreated controls. As shown by the test results, the compounds according to the invention have a good herbicidal pre-emergence activity against a broad spectrum of grass weeds and broad-leaved weeds.
melting point,SMILES,"herbicidal activity, post-emergence [1]","herbicidal activity, pre-emergence [2]"
–,COC(=O)c1ccc(N=CN(C)C)cc1S(=O)(=O)NC(=O)Nc1nc(Cl)cc(OC)n1 [Example 2-39],very good herbicidal activity,very good herbicidal activity
–,COC(=O)c1ccc(N=CN2CCCC2)cc1S(=O)(=O)NC(=O)Nc1nc(OC)cc(OC)n1 [Example 2-36],very good herbicidal activity,very good herbicidal activity
–,CCC(=Nc1cccnc1S(=O)(=O)NC(=O)Nc1nc(OC)cc(OC)n1)N(C)C [Example 4-19],very good herbicidal activity,very good herbicidal activity
–,COc1cc(OC)nc(NC(=O)[N-]S(=O)(=O)c2c(N=CN(C)C)c(C)nn2C)n1.[Na+] [Example 10-2],very good herbicidal activity,very good herbicidal activity
–,CCN(C=Nc1ccccc1S(=O)(=O)NC(=O)Nc1nc(OC)cc(OC)n1)CC [Example 1-5],very good herbicidal activity,very good herbicidal activity
–,COc1cc(OC)nc(NC(=O)NS(=O)(=O)c2sccc2N=C(C(C)C)N(C)C)n1 [Example 9-3],very good herbicidal activity,very good herbicidal activity
–,COc1cc(OC)nc(NC(=O)[N-]S(=O)(=O)c2sccc2N=C(C(C)C)N(C)C)n1.[Na+] [Example 9-4],very good herbicidal activity,very good herbicidal activity
–,COc1cc(OC)nc(NC(=O)[N-]S(=O)(=O)c2sccc2N=C(C)N(C)C)n1.[Na+] [Example 9-2],very good herbicidal activity,very good herbicidal activity
–,COc1cc(OC)nc(NC(=O)[N-]S(=O)(=O)c2ccccc2N=CN(C)C)n1.[Na+] [Example 1-14],very good herbicidal activity,very good herbicidal activity
73 to 75 °C,"COC(=O)c1ccc(N=CN(C)C)cc1S(=O)(=O)NC(=O)Nc1nc(OC)cc(OC)n1 [Example 2-10, methyl 2-[[[[(4,6-dimethoxypyrimidin-2-yl)amino]carbonyl]amino]sulfonyl]-4-(2-dimethylamino-1-azaethenyl)-benzoate]",very good herbicidal activity,very good herbicidal activity
–,COc1cc(OC)nc(NC(=O)NS(=O)(=O)c2ncccc2N=C(C(C)C)N(C)C)n1 [Example 4-17],very good herbicidal activity,very good herbicidal activity
209 to 210 °C (dec.),"COc1cc(OC)nc(NC(=O)NS(=O)(=O)c2ccccc2N=CN(C)C)n1 [Example 1-1, N-[(4,6-dimethoxypyrimidin-2-yl)aminocarbonyl]-2-(2-dimethylamino-1-azaethenyl)benzenesulfonamide]",very good herbicidal activity,very good herbicidal activity
–,COc1cc(OC)nc(NC(=O)NS(=O)(=O)c2sccc2N=CN(C)C)n1 [Example 9-5],very good herbicidal activity,very good herbicidal activity
–,COc1cc(OC)nc(NC(=O)NS(=O)(=O)c2c(N=CN(C)C)c(C)nn2C)n1 [Example 10-1],very good herbicidal activity,very good herbicidal activity
–,CCN(C=Nc1ccc(S(=O)(=O)CC)c(S(=O)(=O)NC(=O)Nc2nc(OC)cc(OC)n2)c1)CC [Example 2-50],very good herbicidal activity,very good herbicidal activity
–,CCN(C=Nc1ccc(C(=O)OC)c(S(=O)(=O)NC(=O)Nc2nc(OC)cc(OC)n2)c1)CC [Example 2-48],very good herbicidal activity,very good herbicidal activity
–,COc1cc(OC)nc(NC(=O)NS(=O)(=O)c2ncccc2N=C(C)N(C)C)n1 [Example 4-18],very good herbicidal activity,very good herbicidal activity
–,COc1cc(OC)nc(NC(=O)NS(=O)(=O)c2sccc2N=C(C)N(C)C)n1 [Example 9-1],very good herbicidal activity,very good herbicidal activity
–,COC(=O)c1ccc(N=C(C(C)C)N(C)C)cc1S(=O)(=O)NC(=O)Nc1nc(OC)cc(OC)n1 [Example 2-26],very good herbicidal activity,very good herbicidal activity
–,COC(=O)c1ccc(N=CN2CCCCC2)cc1S(=O)(=O)NC(=O)Nc1nc(OC)cc(OC)n1 [Example 2-37],very good herbicidal activity,very good herbicidal activity
–,CCN(C=Nc1ccc(C(=O)OC)c(S(=O)(=O)[N-]C(=O)Nc2nc(OC)cc(OC)n2)c1)CC.[Na+] [Example 2-49],very good herbicidal activity,very good herbicidal activity
–,COc1cc(OC)nc(NC(=O)[N-]S(=O)(=O)c2sccc2N=CN(C)C)n1.[Na+] [Example 9-6],very good herbicidal activity,very good herbicidal activity
–,COc1cc(OC)nc(NC(=O)NS(=O)(=O)c2ncccc2N=CN(C)C)n1 [Example 4-2],very good herbicidal activity,–
–,CCS(=O)(=O)c1ccc(N=CN(C)C)cc1S(=O)(=O)NC(=O)Nc1nc(OC)cc(OC)n1 [Example 2-22],very good herbicidal activity,very good herbicidal activity
–,COC(=O)c1ccc(N=CN(C)C)cc1S(=O)(=O)NC(=O)Nc1nc(C)nc(OC)n1 [Example 2-41],very good herbicidal activity,very good herbicidal activity
–,COc1cc(OC)nc(NC(=O)NS(=O)(=O)c2cccc(N=CN(C)C)c2)n1 [Example 2-47],very good herbicidal activity,very good herbicidal activity
–,CCC(=Nc1ccc(C(=O)OC)c(S(=O)(=O)NC(=O)Nc2nc(OC)cc(OC)n2)c1)N(C)C [Example 2-24],very good herbicidal activity,very good herbicidal activity
140 to 141 °C (dec.),"COc1cc(OC)nc(NC(=O)NS(=O)(=O)c2cc(N=CN(C)C)ccc2C(=O)N(C)C)n1 [Example 2-15, N,N-dimethyl-2-[[[[(4,6-dimethoxypyrimidin-2-yl)-amino]carbonyl]amino]sulfonyl]-4-(2-dimethylamino-1-azaethenyl)-benzamide]",very good herbicidal activity,very good herbicidal activity
–,COc1cc(OC)nc(NC(=O)NS(=O)(=O)c2cc(N=CN(C)C)ccc2S(C)(=O)=O)n1 [Example 2-21],very good herbicidal activity,very good herbicidal activity
